How the values were obtained:
[1] = test system: sciatic nerve of WT mice; test: Local application to sciatic nerve using Surgifoam wrap, WT mice; assay type: in vivo, mouse
Experimental: (§1) Mice: All experiments were performed in accordance with the protocols of the Institutional Animal Care and Use Committee of Washington University in St. Louis and the guidelines for the Care and Use of Laboratory Animals of the National Institutes of Health. Mice were housed on a 12 hr light dark cycle with less than 5 mice per cage and with water and food available at all times. Male and female mice were used for all experiments. 5-week old mice were used for IP injection and 5-6-month old mice were used for Surgifoam wrap treatments. Sarm1 KO mice were a gift from Macro Colonna at Department of Pathology and Immunology, Washington University School of Medicine in St. Louis, and C57BL/6 mice were purchased from Jackson Laboratory.
(§2) IP injection and local application of 3-AP to sciatic nerve using Surgifoam wrap 5 week-old mice were used for IP injection experiment. Suitable skin incisions were made at the mid-thigh level of 5 week-old mice, followed by a small incision or blunt dissection to the muscle fascia to permit retraction of the biceps femoris and gluteus superficialis muscles to expose the sciatic nerve. The nerve was carefully separated from surrounding connective tissue and then a 0.5×1 cm piece of sterile absorbable hemostatic material (Surgifoam) soaked in 500 mM 3-AP (or saline control) was wrapped around the sciatic nerve. Wound clips, and/or tissue adhesive were used to close the incision.
Tissue processing: Tibial nerves from both control and 3-AP treated sides was dissected out 7 days post-surgery. The distal 2 cm portion of the nerve was fixed in 4% paraformaldehyde for 1 hr at room temperature, then moved to 30% sucrose and embedded in OCT for cryosectioning in the following day. Immunocytochemistry was performed on tibial cryosections using NF200 (Sigma N4142, 1:1000) and MBP (Millipore MAB386, 1:100) followed by anti-rabbit-Alexa488 (1:500) and anti-rat-Cy3 (1:500). The proximal 2 cm portion of the sciatic nerves were fixed in 3% Glutaraldehyde for processing and embedding in epoxy/plastic. Toluidine blue thick sections (400-600 nm thickness) were cut and axon counting was performed using binary image analysis.

[2] = test system: Sarm1 KO DRG neurons; test: Metabolite measurement by LC-MS/MS in Sarm1 KO DRG neurons; assay type: cell-based, mouse; details: 3-AP-treated Sarm1 KO neurons
Experimental: (§3) DRG neuron culture: Mouse DRG culture was as described previously. Mouse DRGs were dissected at embryonic day 13.5. Approximately 50 ganglia were collected from each embryo and dissociated in 0.05% Trypsin containing 0.02% EDTA (Gibco) at 37° C. for 20 min. The DRG neurons were washed 3 times with DRG culture medium after incubation with Trypsin. Cells were seeded as spot cultures in 96-tissue culture plates (Corning) coated with 0.1 mg/ml poly-D-lysine and 0.1 mg/ml laminin. They were cultured in Neurobasal (Gibco) containing 2% B27 (Invitrogen), 100 ng/ml 2.5S NGF (Harlan Bioproducts), and 1 μM 5-fluoro-2′-deoxyuridine/1 μM uridine. The culture medium was exchanged with fresh DRG culture medium every 2-3 days. Lentiviruses were added 3 days after seeding (DIV3).
(§4) Metabolite measurement using LC-MS/MS: Lyophilized samples were reconstituted with 50 μl of 5 mM ammonium formate and centrifuged at 12,000 g for 10 min. Cleared supernatants were transferred to sample vials. Serial dilutions of standards for each metabolite in 5 mM ammonium formate were used for calibration. […] Raw data were acquired and quantified using MassHunter Workstation software version B.08.00 for 6400 Series Triple Quadrupole (Agilent Technologies, Santa Clara, CA).

[3] = test system: WT mice; test: Survival after IP injection of 3-AP, WT mice; assay type: in vivo, mouse
Experimental: as §1, §2

[4] = test system: Sarm1 KO DRG neurons expressing W103A, R157A or K193R SARM1 mutants or wildtype SARM1; test: Axon degeneration in Sarm1 KO DRG neurons infected with lentivirus expressing wildtype or allosteric pocket mutant SARM1; assay type: cell-based, mouse; details: 3-AP 300 μM
Experimental: as §3
Lentivirus production: Lentivirus production was performed as described previously. HEK 293T cells were seeded with the density of 1×10^6 in 35 mm well tissue culture plate (Corning). […]
Quantification of axon degeneration: After culture for 7 days, axotomy was performed by cutting DRG axons manually with a razor blade. […] Axon degeneration indexes were calculated from these bright-field images using ImageJ (NIH). The axon degeneration index was calculated as the ratio of fragmented axon areas as previously described. Indexes were calculated as the average of six fields per well.

[5] = test system: WT mouse embryonic dorsal root ganglion (DRG) neurons; test: MTT assay of neuronal death in WT DRG neurons; assay type: cell-based; details: 12 hr treatment
Experimental: as §3

[6] = test system: Sarm1 KO mice; test: Survival after IP injection of 3-AP, Sarm1 KO mice; assay type: in vivo, mouse
Experimental: as §1
as §2, with “Wound clips, and/or tissue adhesive were used to close the incision.” left out

[7] = test system: Sarm1 KO DRG neurons; test: Axon degeneration and neuronal death in cultured Sarm1 KO DRG neurons; assay type: cell-based, mouse; details: escalating doses, even at 1 mM
Experimental: as §3
(§5) Quantification of axon degeneration: After culture for 7 days, axotomy was performed by cutting DRG axons manually with a razor blade. After axon transection, bright-field images of distal axons were taken using the Operetta automated imaging system (PerkinElmer). Axon degeneration indexes were calculated from these bright-field images using ImageJ (NIH). The axon degeneration index was calculated as the ratio of fragmented axon areas as previously described. Indexes were calculated as the average of six fields per well.

[8] = test system: sciatic nerve of Sarm1 KO mice; test: Local application to sciatic nerve using Surgifoam wrap, Sarm1 KO mice; assay type: in vivo, mouse; details: 500 mM 3-AP, seven days
Experimental: as §1
as §2, with “Wound clips, and/or tissue adhesive were used to close the incision.” left out

[9] = test system: Sarm1 KO mice; test: cADPR levels in sciatic nerve after IP injection, Sarm1 KO mice; assay type: in vivo, mouse; details: similar IP injections
Experimental: as §1
as §4, with “CA). […]” for “CA).”

[10] = test system: SARM1; test: cADPR levels in sciatic nerve after IP injection, WT mice; assay type: in vivo, mouse; details: 275 mg/kg IP, 3 days post-administration
Experimental: as §1
as §4, with “CA). […]” for “CA).”

[11] = test system: rabbits, dogs, mice and rats; details: early studies; could be blocked by administration of Nam; cited from earlier work
[12] = test system: WT mouse embryonic dorsal root ganglion (DRG) neurons; test: Axon degeneration in cultured WT DRG neurons; assay type: cell-based; details: WT DRG neurons
Experimental: as §3
as §5, with “Quantification of axon degeneration: After culture for 7 days, axotomy was performed by cutting DRG axons manually with a razor blade.” left out

[13] = test system: WT DRG neurons; test: Metabolite measurement by LC-MS/MS in WT DRG neurons; assay type: cell-based, mouse
Experimental: as §3
Metabolite measurement using LC-MS/MS: Lyophilized samples were reconstituted with 50 μl of 5 mM ammonium formate and centrifuged at 12,000 g for 10 min. Cleared supernatants were transferred to sample vials. Serial dilutions of standards for each metabolite in 5 mM ammonium formate were used for calibration. HPLC-mass spectrometry analysis was performed on an Agilent 1290 Infinity II liquid chromatography system (Agilent Technologies, Santa Clara, CA) with a flexible pump, multisampler, sample cooler and an MCT containing an Atlantis T3 column (2.1×150 mm, 3 μm) and VanGuard guard cartridge (2.1 mm×5 mm, 3 μm) (Waters, Milford, MA), coupled to an Agilent 6470 Triple Quad mass spectrometer (Agilent Technologies, Santa Clara, CA). The mobile phase (0.15 ml/min) was 5 mM ammonium formate in water (A) and 100% methanol (B). The column was equilibrated with 0% B, maintained after injection for 2 min, then a linear gradient to 20% B applied over 4 min. The column was then ramped to 50% B over 2 min, and held at 50% for 2 min, then reverted back to 0% B over the next 5 min and allowed to re-equilibrate at 0% B for 9 min. The total run time was 24 min per sample. […] Raw data were acquired and quantified using MassHunter Workstation software version B.08.00 for 6400 Series Triple Quadrupole (Agilent Technologies, Santa Clara, CA).

CC(=O)c1cccnc1 [3-AP, 3-acetylpyridine]
axon loss in tibial nerve distal to treatment site ([1]; WT mice, 500 mM 3-AP, seven days, vs contralateral or saline-treated nerve): dramatic loss of axons
gait after local treatment ([1]; WT mice, Surgifoam soaked in 500 mM 3-AP on sciatic nerve): rapidly develop an abnormal gait
axon damage in the proximal sciatic nerve ([1]; WT mice, proximal to site of 500 mM 3-AP application): no detectable axon damage
systemic harm after local application ([1]; local application to peripheral nerve): without apparent systemic harm
changes in the levels of NAD+, ATP, or cADPR [2]: no significant changes
survival ([3]; 275 mg/kg IP): generally survive
survival ([3]; 400 mg/kg IP): die rapidly
lethality ([3]; 500 mg/kg IP): rapidly lethal
axons of Sarm1 KO neurons expressing SARM1 W103A, R157A or K193R ([4]; allosteric pocket mutants): remain intact
axon degeneration in Sarm1 KO neurons expressing wildtype SARM1 ([4]; lentiviral wildtype SARM1): restores 3-AP-induced axon degeneration
neuronal death (MTT assay) [5]: causes neuronal death at similar doses
lethality ([6]; 275 mg/kg IP, n=5): no lethality
survival and phenotype ([6]; up to 500 mg/kg IP): survive and have no obvious phenotype
effect on axon degeneration and neuronal death [7]: no effect
axon loss in treated nerve [8]: well protected from axon loss
cADPR levels in the sciatic nerve [9]: no alteration in cADPR levels
increase of cADPR levels in the sciatic nerve [10]: 3-4 fold
toxicity on administration to animals [11]: severe neurotoxicity and death
doses at which axons rapidly degenerate at a rate similar to that after transection [12]: above 250 μM
dose at which axons begin to degenerate slowly ([12]; axonal integrity at multiple time points): 250 µM
NAD+ and ATP levels ([13]; 3-AP 300 μM, WT neurons): Substantial NAD^+ and ATP depletion
decline in NMN ([13]; within four hours, p<0.001, n=3): greater than 50%

— US12390482B2, “Neurolytic agents and methods of using and identifying same” (priority 2021, dated 2025)
